Some results are limits rather than exact numbers.

The text below walks through data of patent US20250339426A1, “GCN2 MODULATOR FOR TREATING CANCER” (HIBERCELL, INC., priority 2022, published 2025).

Test [1] relates to MOLM-16 xenograft tumors. Nature of the test: Metabolomic analysis of MOLM-16 xenograft tumors. The following applies: four days. Type of test: in vivo, mice. How it is done: MOLM-16 xenograft tumors were treated with Vehicle or HC-7366 (0.3, 1, 3, 10 or 30 mg/kg) for four days, and snap frozen tumors were collected for metabolomic analysis (n=12). Metabolic analysis was performed at Metabolon on the LC/MS/MS and Polar LC platforms. Data was normalized to Vehicle group and Welch's two-sample t-test was performed for statistical analysis. Heat maps show metabolite levels normalized to vehicle control (FIGS. 90, 94, 102, and 107).

The subject of test [2] is HT1080 (human fibrosarcoma cells). Nature of the test: In vivo tumor growth inhibition, HT1080 xenograft. Details: species or system BALB/c nude mice. The following applies: both 1 and 3 mg/kg, oral gavage. How it is done: HT1080 (human fibrosarcoma cells): Female 6-8 weeks old BALB/c nude mice were inoculated subcutaneously on the right flank with HT1080 tumor cells (1×10^7) in 0.1 ml of EMEM medium without serum for tumor development. The treatments were started when the mean tumor size reached approximately 109 mm^3 at Day 4 post inoculation and continued until end of study by oral gavage dosing of HC-7366 at listed doses (vehicle, 0.3 mg/kg HC-7366 BID (two times per day), 1 mg/kg HC-7366 BID, 3 mg/kg HC-7366 BID, 0.6 mg/kg HC-7366 QD (one time per day), 2 mg/kg HC-7366 QD, or 6 mg/kg HC-7366 QD, FIGS. 6-7).
(§1) [formula] • 2.2.2 Tumor Measurements: The measurement of tumor size was conducted three times weekly with a caliper and recorded. The tumor volume (mm^3) was estimated using the formula: TV=a×b^2/2, where “a” and “b” is long and short diameters of a tumor, respectively. Tumor volume was calculated using the formula [tumor volume (mm^3)=π/6×length×width^2).
(§2) Regression was calculated using the formula=100×ΔT/T initial, if ΔT<0. Animals with 0 mm^3 tumor volume (no measurable tumor) for three consecutive measurements were considered as complete responders and animals with 50% tumor regressions were partial responders.

Test [3] relates to TM00298 (human prostate cancer cells). The test can be described thus: In vivo tumor growth inhibition, TM00298 PDX. Details: species or system NSG mice. The following applies: both 3 mg/kg and 30 mg/kg twice daily oral. How it is done:
TM00298 (human prostate cancer cells): Male 6-8 weeks old NSG mice were inoculated subcutaneously with 1 mm^3 TM00298 tumor fragments. The treatments were started when the mean tumor size reached approximately 123 mm^3 and continued until end of study by twice daily oral gavage dosing of HC-7366 at listed doses (vehicle, 3 mg/kg HC-7366, or 30 mg/kg HC-7366, FIG. 15).
as §1, §2

The subject of test [4] is MOLM-16 cells. The test can be described thus: Seahorse XF Mito stress test (OCR) and Glycolysis Stress Test (ECAR). It is filed as cell-based, human. The following applies: 0.001, 0.1 or 10 μM, 16 hrs; strongest effect at 0.1 μM. How it is done:
MOLM-16 cells were treated with 0.001, 0.1 or 10 μM HC-7366 for 16 hrs and the Seahorse XF Glycolysis Stress Test (ECAR; extracellular acidification rate) and Seahorse XF Mito stress test (OCR; oxygen consumption rate) (Agilent technologies, CA, USA) were performed.

The test system of test [5] is patient-derived Champions' human AML models. The test can be described thus: Ex vivo AML PDX cell viability (Cell Titer Glo), 30 models. It is filed as cell-based. The following applies: for EC50: Homo sapiens. How it is done:
. Cell viability was assayed after treating PDX models with DMSO or HC-7366 for 6 days using a plate-based luminescence assay (Cell Titer Glo). […]
EC50 values were calculated to the bottom of the curve and are provided below. Viability curves are provided for the models CTG-2229 (FIG. 81), CTG-3680 (FIG. 82), CTG-3667 (FIG. 83), CTG-2456 (FIG. 84), CTG-2457 (FIG. 85), and CTG-2454 (FIG. 86).

Test [6] relates to HCT116 (human colorectal cancer cells). The test can be described thus: In vivo tumor growth inhibition, HCT116 xenograft. Also on record: species or system Athymic Nude-Foxn1nu mice. How it is done: HCT116 (human colorectal cancer cells): Female 7-8 weeks old Athymic Nude-Foxn1nu mice were inoculated subcutaneously on the right flank with HCT116 tumor cells (5 ×10^6) in 0.1 ml of McCoy's 5a medium without serum for tumor development. Single agent HC-7366 was dosed at 3 or 30 mg/kg (twice daily, orally), Trametinib at 1 mg/kg (once a day, orally) and Alpelisib at 50 mg/kg (once a day, orally). HC-7366 was combined with either Trametinib or Alpelisib. The treatments were started when the mean tumor size reached approximately 270 mm^3 at Day 18 post inoculation and continued until end of study (FIGS. 63-64).
as §1, §2

With `CNC(=O)c1ncn2cc(-c3c(F)ccc(NS(=O)(=O)c4cc(Cl)cnc4OC)c3F)ncc12` [HC-7366, 6-(3-((5-chloro-2-methoxypyridine)-3-sulfonamido)-2,6-difluorophenyl)-N-methylimidazo[1,5-a]pyrazine-1-carboxamide], in test [1] (0.3-30 mg/kg), the “aspartate and cysteine levels” value was “decreased”; the “glutathione levels (GSH and GSSG)” value is “significantly reduced”; the “levels of most amino acids” value is “significantly elevated”; the “metabolites involved in pyrimidine synthesis” value is reported as “significantly reduced”. Also, the γ-glutamyl-amino acids result in test [1] (0.3-30 mg/kg) is recorded as “enhanced”. Further, in test [1] (all doses), the “aspartate metabolism and polyamine-related metabolites (putrescine, spermine, MTA)” value is on record as “significantly reduced”. Further, the tumor growth inhibition entry in test [2] is reported as “up to 80%”. Moreover, the tumor growth inhibition in test [3] was about 70%. In test [4], the “OCR (oxygen consumption rate)” value was “significantly reduced” and the “glycolysis (ECAR)” value was “significantly reduced”. Moreover, in test [5] (4.57-10,000 nM, 6 days), the “viability of primary AML PDX cells” value is on record as “potently reduced viability”. The compound also came in with an EC50 in test [5] (5 PDX models, resistant responders) of 0.924 to 2.25 µM. This compound also came in with an EC50 in test [5] (11 PDX models, sensitive responders) of under 0.1 µM. In test [5] (12 PDX models, moderate responders), this compound had an EC50 of 0.1 to 0.35 µM. Moreover, the response result in test [5] (two models) was “no response”. In test [6] (HC-7366 3 mg/kg twice daily, alpelisib study (FIG. 63), trend), this compound returned a TGI of about 38%. For the same compound, the “effect on tumor growth” value in test [6] (HC-7366 30 mg/kg twice daily, alpelisib study (FIG. 63)) is “did not reduce tumor growth”. Also, in test [6] (HC-7366 at either 3 or 30 mg/kg, trametinib study (FIG. 64)), the efficacy result is “did not show efficacy”.
